“Also recorded” adds a separate entry of the source.
Assays:
[1] = system: wild-type plants (A. thaliana); assay: Toxicity of keto acids to wild-type plants on half strength MS agar plates; type: in vivo, Arabidopsis thaliana; settings: for effect on growth of A. thaliana: in vivo
Method: (§1) To evaluate the toxic action of 3-methyl-2-oxopentanoate and 3-methyl-2-oxobutanoate, wild-type plants were sown on two sets of half strength MS agar plates, each containing one of the compounds in a range of concentrations (0.01-10 mM). […] For 3-methyl-2-oxobutanoate, 5 mM was required for complete inhibition. Further, several attempts were made to probe the nature of D-serine's toxicity.

[2] = system: DAAO transgenic plants; assay: Germination of DAAO transgenic plants on D-Asn (cytosolic and peroxisomal DAAO); type: in vivo; settings: 30 mM; cytosolic and peroxisomal DAAO constructs vs wild-type
[3] = system: wild-type Arabidopsis thaliana; assay: Growth of wild-type A. thaliana on D-amino acid media; type: in vivo; settings: 30 mM, FIG. 2
[4] = system: dao1 transgenic A. thaliana; assay: Growth of dao1 (DAAO) transgenic A. thaliana on D-amino acid media; type: in vivo, Arabidopsis thaliana
Method: (§2) FIG. 4 D-amino acid dose responses of dao1 transgenic and wild-type A. thaliana. • (a-d) Growth of dao1 transgenic line 3:7 (white), 10:7 (light gray), 13:4 (gray) and wild-type (black) plants, in fresh weight per plant, on media containing various concentrations of D-serine, D-alanine, D-isoleucine and D-valine in half-strength MS with 0.5% (wt/vol) sucrose and 0.8% (wt/vol) agar. Different concentration ranges were used for different D-amino acids. The plants were grown for 10 d after germination under 16 h photoperiods at 24° C.; n=10±s.e.m., except for plants grown on D-isoleucine, where smaller Petri dishes were used, (n=6±s.e.m.). • (e-l) Photographs of dao1 transgenic line 10:7 (e-h) and wild-type plants (i-l), grown for 10 d on the highest concentrations of the D-amino acid shown in the respective graphs above. All pictures have the same magnification. FW, fresh weight.
Therefore, plants containing the construct were tested as described above on two sets of media, one containing D-isoleucine and the other containing D-valine at various concentrations, to assess whether DAAO could also be used as a counter-selection marker. Unambiguous counter-selection selection was achieved when seeds were sown on either D-isoleucine or D-valine at concentrations greater than 10 mM (FIG. 4 c,d).

[5] = system: wild-type Arabidopsis thaliana; assay: Growth of wild-type A. thaliana on D-amino acid media; type: in vivo; settings: for effect on growth of wild-type plantlets: FIG. 3, half-concentrated MS medium supplemented at 3 mM (Panel A) or 30 mM (Panel B); for effect on wild-type plants: concentration not stated / various concentrations
Method: FIG. 3 Effect of various D-amino acids on plant growth. • Wild type Arabidopsis thaliana plantlets were grown on half-concentrated Murashige-Skoog medium (0.5% (wt/vol) sucrose, 0.8% (wt/vol) agar) supplemented with the indicated D-amino acid at either 3 mM (Panel A) or 30 mM (Panel B).
as §2

[6] = system: DAAO transgenic seedlings; assay: Spray application of D-amino acids on soil-grown DAAO transgenic seedlings; type: in vivo, Arabidopsis thaliana; settings: 50 mM spray
Method: (§3) FIG. 5: Selection of primary transformants with the DAAO marker. • (a-c) DAAO T1 seedlings on media containing 3 mM D-alanine (a), 3 mM D-serine (b) and 50 μg ml-1 kanamycin (c). Seeds were surface-sterilized and sown on half-strength MS plates with 0.5% (wt/vol) sucrose, 0.8% (wt/vol) agar and the respective selective compound, then grown for 5 d after germination under 16 h photoperiods at 24° C. • (d) DAAO transgenic plants grown on soil photographed after selection by spraying with (1) D-alanine and (2) D-serine, and wild-type plants sprayed with (3) D-alanine and (4) D-serine. Eight seeds per plot and treatment were sown on soil, and grown for 7 d after germination before applying the selective treatment, which consisted of spraying with aqueous 50 mM solutions of D-alanine or D-serine with 0.05% Tween 80 on three consecutive days.
(§4) FIG.: 11 D-amino acids are applicable by spraying procedure DAAO transgenic plants grown on soil photographed after selection by spraying with (1) D-alanine and (2) D-serine, and wild-type plants sprayed with (3) D-alanine and (4) D-serine. Eight seeds per plot and treatment were sown on soil, and grown for 7 d after germination before applying the selective treatment, which consisted of spraying with aqueous 50 mM solutions of D-alanine or D-serine with 0.05% Tween 80 on three consecutive days.

[7] = system: wild-type seedlings; assay: Spray application of D-amino acids on soil-grown wild-type seedlings; type: in vivo, Arabidopsis thaliana; settings: one-week-old seedlings, 50 mM, sprayed on three consecutive days
Method: as §3, §4

[8] = biological target: T1, DAAO (Rhodotorula toruloides, UniProt P80324); assay: DAAO incubation of cell-free plant extracts, keto acid production by HPLC; type: biochemical, Rhodotorula gracilis; settings: cell-free extracts from dao1 transgenic line 10:7
T1 construct: expressed in transfected cells; host or cells: Arabidopsis thaliana (Col-0) dao1 transgenic line 10:7, stably transformed with pPCV702:dao1 (CaMV 35S); crude soluble protein extract
T1 sequence (P80324 25-368): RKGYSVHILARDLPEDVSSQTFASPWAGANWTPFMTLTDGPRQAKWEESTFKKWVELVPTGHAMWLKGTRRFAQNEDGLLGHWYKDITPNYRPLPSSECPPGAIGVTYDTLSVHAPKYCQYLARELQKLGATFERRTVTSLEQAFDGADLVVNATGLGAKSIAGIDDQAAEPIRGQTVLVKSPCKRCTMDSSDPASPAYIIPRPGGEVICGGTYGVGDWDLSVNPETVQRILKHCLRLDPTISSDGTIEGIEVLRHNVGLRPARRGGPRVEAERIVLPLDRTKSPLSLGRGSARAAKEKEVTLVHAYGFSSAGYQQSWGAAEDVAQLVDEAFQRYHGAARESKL
Method: Soluble proteins were extracted by shaking 0.1 g samples of plant material that had been finely pulverized in a 1.5 ml Eppendorf tube in 1 ml of 0.1 M potassium phosphate buffer, pH 8. DAAO activity was then assayed as follows. Reaction mixtures were pre-pared containing 2,120 μl of 0.1 M potassium phosphate buffer, pH 8, 80 μl of crude protein extract and 100 μl of 0.3 M D-alanine. The samples were incubated for 2 h at 30° C. The enzyme activity was then assessed, by measuring the increase in absorbance at 220 nm (E=1.090 M^−1 cm^−1) associated with the conversion of D-alanine to pyruvate, after transferring the test tubes to boiling water for 10 min to stop the reaction. In control reactions, D-alanine was added immediately before boiling. One unit of DAAO activity is defined as the turnover of one micromole of substrate per minute, and activity was expressed per gram plant biomass (fresh weight). The breakdown of D-isoleucine and D-valine in DAAO incubations, and the associated production of 3-methyl-2-oxopentanoate and 3-methyl-2-oxobutanoate, were analyzed by high-performance liquid chromatography. In other respects the reactions were carried out as described above.

[9] = system: poplar, tobacco, barley, maize, tomato and spruce; assay: Susceptibility of other plant species to D-serine; type: in vivo; settings: concentrations similar to those toxic for A. thaliana; FIG. 6+7
[10] = system: T1 seeds of transgenic Arabidopsis plants; assay: Selection of DAAO (35S:dao1 / pNos:nptII) T1 seeds on selective media; type: in vivo, Arabidopsis thaliana; settings: FIG. 4a
Text: Flowering A. thaliana plants were then transformed by the floral dip method (Clough S J & Bent A F (1998) Plant J. 16, 735-743 (1998) with the transgenic Agrobacterium tumefaciens strain carrying the vector described above by dipping for 10-20 seconds into the Agrobacterium solution. Afterwards the plants were kept in the greenhouse until seeds could be harvested. Transgenic seeds were selected by plating surface sterilized seeds on growth medium A (4.4 g/L MS salts [Sigma-Aldrich], 0.5 g/L MES [Duchefa]; 8 g/L Plant Agar [Duchefa]) supplemented with 50 mg/L kanamycin for plants carrying the nptII resistance marker, or 0.3 to 30 mM D-amino acids (as described below) for plants comprising the dual-function marker of the invention. Surviving plants were transferred to soil and grown in the greenhouse.
T1 seeds of transgenic Arabidopsis plants were surface-sterilized and sown in Petri plates that were sealed with gas-permeable tape. The growth medium was half strength MS19 with 0.5% (wt/vol) sucrose and 0.8% (wt/vol) agar, plus 3 mM D-alanine, 3 mM D-serine or 50 μg/ml kanamycin as the selective agent. […] To evaluate the selection efficiency on different substrates, 2,074, 1,914 and 1,810 T1 seeds were sown on D-alanine-, D-serine- and kanamycin-selective plates, respectively, and the number of surviving seedlings was counted (44, 32 and 43, respectively). […]

[11] = system: wildtype A. thaliana; assay: Attempted rescue of wild-type A. thaliana grown on lethal D-serine with potential inhibitors of D-serine toxicity; type: in vivo, Arabidopsis thaliana; settings: lethal concentrations of D-serine, added separately and in combinations, 0.001-50 μg ml-1
Method: as §1

[12] = wild-type plants, half strength MS agar, tested range 0.01-10 mM
[13] = concentration not stated / various concentrations

CC(C)C(=O)C(=O)O [3-methyl-2-oxobutanoate]
effect on growth of A. thaliana [1]: impaired growth | concentration giving total (complete) growth inhibition [1, 12]: 5 mM

CCC(C)C(=O)C(=O)O (stereo not drawn) [3-methyl-2-oxopentanoate]
effect on growth of A. thaliana [1]: impaired growth | concentration at which plants were slightly affected [1, 12]: 0.1 mM | concentration giving total (complete) growth inhibition [1, 12]: 1 mM

NC(=O)C[C@@H](N)C(=O)O [D-Asn, D-asparagine]
inhibition of germination of DAAO transgenic plants [2]: inhibited significantly more than the wild-type

C[C@@H](N)C(=O)O [D-alanine]
effect on wild-type plantlets [3]: toxic effect | effect on transgenic (DAAO) plants ([4]; 30 mM): no severe damage; also recorded: no negative effect | effect on transgenic (DAAO) plants [4, 13]: detoxify; also recorded: developed normally | effect on growth of wild-type plantlets [5]: severe phytotoxic effects | effect on wild-type plants [5]: inhibited even at quite low concentrations; also recorded: inhibited growth | response of transgenic seedlings to foliar application [6]: resistant | effect of sprayed application on wild-type seedlings [7]: effectively killed

CC[C@@H](C)[C@@H](N)C(=O)O [D-isoleucine]
increase in production of the keto acid (3-methyl-2-oxopentanoate / 3-methyl-2-oxobutanoate) compared to extracts of wild-type plants [8]: 15 fold | effect on wild-type plantlets [3]: no severe damage | effect on transgenic (DAAO) plants ([4]; 30 mM): toxic effect | effect on transgenic (DAAO) plants [4, 13]: strong negative influence; also recorded: inhibit growth; also recorded: effectively killed | effect on growth of wild-type plantlets [5]: no significant effects | effect on wild-type plants [5]: not toxic; also recorded: minor effects; also recorded: not the wild-type plants; also recorded: no sign of toxicity

N[C@H](CO)C(=O)O [D-serine]
effect on transgenic (DAAO) plants ([4]; 3 mM): slightly inhibited the growth | effect on transgenic (DAAO) plants ([4]; 30 mM): significant growth inhibition | effect on transgenic (DAAO) plants [4, 13]: detoxify; also recorded: developed normally | toxicity to other plant species [9]: toxic effects; also recorded: susceptible | effect on growth of wild-type plantlets [5]: severe phytotoxic effects | effect on wild-type plants [5]: inhibited even at quite low concentrations; also recorded: inhibited growth | response of transgenic seedlings to foliar application [6]: resistant | effect of sprayed application on wild-type seedlings [7]: effectively killed | concentration at which efficient selection was achieved [10]: lower than 1 mM

CC(C)[C@@H](N)C(=O)O [D-valine]
increase in production of the keto acid (3-methyl-2-oxopentanoate / 3-methyl-2-oxobutanoate) compared to extracts of wild-type plants [8]: 7 fold | effect on transgenic (DAAO) plants [4, 13]: strong negative influence; also recorded: inhibit growth | effect on wild-type plants [5]: not toxic; also recorded: minor effects; also recorded: not the wild-type plants; also recorded: moderately negative effect

CC[C@H](C)[C@H](N)C(=O)O [L-isoleucine]
effect on wild-type plants [5]: negative effects

N[C@@H](CO)C(=O)O [L-serine]
rescue (mitigation) of D-serine toxicity [11]: without any success

CC(C)C[C@H](N)C(=O)O [leucine]
rescue (mitigation) of D-serine toxicity [11]: without any success

CC(C)(CO)[C@@H](O)C(=O)NCCC(=O)O [pantothenic acid]
rescue (mitigation) of D-serine toxicity [11]: could not be mitigated

C[C@@H](O)[C@H](N)C(=O)O [threonine]
rescue (mitigation) of D-serine toxicity [11]: without any success

NCCC(=O)O [β-alanine]
rescue (mitigation) of D-serine toxicity [11]: without any success | rescue (mitigation) of D-serine toxicity ([11]; listed as â-alanine): could not be mitigated

calcium-pantothenate
rescue (mitigation) of D-serine toxicity [11]: without any success

From patent US20080050819A1, “Constructs for Marker Excision Based on Dual-Function Selection Marker” (BASF Plant Science GmbH, priority 2004, published 2008)
